Molecules are shown by their SMILES. Bounds are passed on as bounds.

By IC50 is commonly meant the concentration that gives 50% inhibition.

For test [1], the target named is T1, human ETB receptor (Homo sapiens, UniProt P24530).
T1 construct: host or cells: CHO cells
T1 sequence (P24530 27-442): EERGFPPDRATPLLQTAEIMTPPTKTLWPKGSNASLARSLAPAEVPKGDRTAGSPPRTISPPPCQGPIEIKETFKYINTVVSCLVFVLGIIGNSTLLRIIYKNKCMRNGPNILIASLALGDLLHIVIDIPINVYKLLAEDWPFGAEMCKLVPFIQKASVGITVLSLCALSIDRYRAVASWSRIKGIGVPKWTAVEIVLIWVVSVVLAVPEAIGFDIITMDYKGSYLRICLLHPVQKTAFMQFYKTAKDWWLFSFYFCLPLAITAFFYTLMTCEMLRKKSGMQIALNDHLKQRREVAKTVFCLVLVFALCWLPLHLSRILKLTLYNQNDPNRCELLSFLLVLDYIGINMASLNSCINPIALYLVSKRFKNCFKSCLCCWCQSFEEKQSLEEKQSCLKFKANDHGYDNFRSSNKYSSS
Nature of the test: In vitro antagonistic effect against human ETB receptor, Ca2+ signal in transfected CHO cells. It is filed as cell-based. The following applies: response to 0.3 nM endothelin-1. The method, then: Antagonist activity of the compound against human ETB receptors expressed in transfected CHO cells was evaluated by measuring the effect of the compound on the changes in the cytoplasmic Ca^2+ ion signal induced by human ETB receptor agonists. The functional activity of the ETB receptor antagonistic effect was tested in Eurofins-Cerep SA according to current standard procedures.
1. Cells were suspended in DMEM buffer (Invitrogen) and then distributed in 384-well plate (100 μL/well) at a density of 3×10^4 cells/well;
2. Probenecid in HBSS buffer (Invitrogen) supplemented with 20 mM Hepes (Invitrogen) (pH 7.4) was mixed with fluorescent probe (Fluo4 NW, Invitrogen), the mixture was added to each wells, then balanced with cells at 37° C. for 60 minutes, and then balanced with cells at 22° C. for 15 minutes;
3. The test plate was placed in a microplate reader (CellLux, PerkinElmer), a DMSO solution or HBSS buffer with an appropriate concentration of the test compound and the positive control was added, and 0.3 nM endothelin-1 or HBSS buffer (base control) was added after 5 minutes, and then the change in fluorescence intensity proportional to the concentration of Ca^2+ ions of […] was measured;
4. Results were shown as the percent inhibition of control response to 0.3 nM endothelin-1;
5. Standard positive control was BQ-788, several concentrations were tested in each experiments. The data was analyzed using Prism to generate a concentration-response curve, and IC50 values of the compounds were calculated.

Test [2] addresses T2, human ETA receptor (Homo sapiens, UniProt P25101).
T2 construct: endogenously expressed human ETA receptors in SK-N-MC cells; host or cells: SK-N-MC cells
T2 sequence (P25101 21-427): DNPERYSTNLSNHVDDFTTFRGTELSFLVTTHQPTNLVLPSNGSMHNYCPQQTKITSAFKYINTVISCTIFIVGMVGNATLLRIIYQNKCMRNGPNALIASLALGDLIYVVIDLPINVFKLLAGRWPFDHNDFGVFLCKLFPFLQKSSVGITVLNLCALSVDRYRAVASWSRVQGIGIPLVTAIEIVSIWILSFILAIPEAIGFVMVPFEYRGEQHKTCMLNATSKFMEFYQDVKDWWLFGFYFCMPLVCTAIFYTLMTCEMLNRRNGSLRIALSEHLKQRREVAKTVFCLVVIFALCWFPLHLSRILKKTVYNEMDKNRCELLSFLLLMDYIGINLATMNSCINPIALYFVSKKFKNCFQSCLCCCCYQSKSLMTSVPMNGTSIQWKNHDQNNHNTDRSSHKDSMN
Nature of the test: In vitro antagonistic effect against human ETA receptor, Ca2+ signal in SK-N-MC cells. The following applies: for IC50: SK-N-MC cells, response to 1 nM endothelin-1; for ETA/ETB selectivity: ratio of ETB IC50 to ETA IC50. It is filed as cell-based. Here is the method: Experimental Embodiment 1: In Vitro Test of Antagonistic Effect Against Human ETA Receptor
Antagonistic activity of the compounds against endogenously expressed human ETA receptors in SK-N-MC cells was evaluated by measuring the effect of compounds on the changes in cytoplasmic Ca^2+ ion signal induced by human ETA receptor agonists using fluorescence detection methods. The functional activity of the ETA receptor antagonistic effect was tested in Eurofins-Cerep SA according to current standard procedures.
1. Cells were suspended in Dulbecco's modified Eagle medium solution (DMEM, Invitrogen) supplemented with 1% FCSd, then distributed in 384-well plate (100 μL/well) at a density of 5×10^4 cells/well;
2. Probenecid in Hank's balanced salt solution (HBSS, Invitrogen) supplemented with 20 mM 4-(2-hydroxyethyl)piperazine-1-ethanesulfonic acid (Hepes, Invitrogen) (pH 7.4) was mixed with fluorescent probe (Fluo4 NW, Invitrogen), the mixture was added to each wells, then balanced with cells at 37° C. for 60 minutes, and then balanced with cells at 22° C. for 15 minutes;
3. The test plate was placed in a microplate reader (CellLux, PerkinElmer), a DMSO solution or HBSS buffer with an appropriate concentration of the test compound and the positive control was added, and 1 nM endothelin-1 or HBSS buffer (base control) was added after 5 minutes, and then the change in fluorescence intensity proportional to the concentration of Ca^2+ ions of free […] was measured;
5. Standard positive control was BQ-123, several concentrations were tested in each experiments. The data was analyzed using Prism to generate a concentration-response curve, and IC50 values of the compounds were calculated.

As to `O=S(=O)(NCC1CCCO1)Nc1ncnc(OCCOc2ncc(Br)cn2)c1-c1ccc2c(c1)OCO2` (single isomer, unassigned) [WX023], the IC50 in test [1] amounted to 15000 nM; in test [2], 0.32 nM. Also, the ETA/ETB selectivity in test [2] was determined as 46800.
The corresponding values for `O=S(=O)(NCC1CCCO1)Nc1ncnc(OCCOc2ncc(Br)cn2)c1-c1ccc2c(c1)OCO2` (single isomer, unassigned) [WX024] are 6700 nM, 0.25 nM and 26800.
For `CCNS(=O)(=O)Nc1ncnc(OCCOc2ncc(Br)cn2)c1-c1ccc2scnc2c1` [WX002], in that order: above 300000 nM, 2.8 nM and above 107000.
Turning to `O=S(=O)(NCC(F)(F)F)Nc1ncnc(OCCOc2ncc(Br)cn2)c1-c1ccc2scnc2c1` [WX003], in test [1], the IC50 amounted to 71000 nM. Besides, in test [2], the IC50 amounted to 2.6 nM and the ETA/ETB selectivity came out at 27300.
For `CCCCNS(=O)(=O)Nc1ncnc(OCCOc2ncc(Br)cn2)c1-c1ccc2scnc2c1` [WX004], in that order: 21000 nM, 1.5 nM and 14000.
The corresponding values for `CCCOCCNS(=O)(=O)Nc1ncnc(OCCOc2ncc(Br)cn2)c1-c1ccc2scnc2c1` [WX006] are above 300000 nM, 1.3 nM and above 230700.
`COCCCNS(=O)(=O)Nc1ncnc(OCCOc2ncc(Br)cn2)c1-c1ccc2scnc2c1` [WX007] came in with an IC50 in test [1] of 35000 nM. Also, in test [2], the IC50 stood at 2.1 nM and the ETA/ETB selectivity amounted to 16600.
For `CCCNS(=O)(=O)Nc1ncnc(OCCOc2ncc(Br)cn2)c1-c1ccc2c(c1)OCO2` [WX008], in that order: 280000 nM, 0.43 nM and 651100.
The corresponding values for `CCNS(=O)(=O)Nc1ncnc(OCCOc2ncc(Br)cn2)c1-c1ccc2c(c1)OCO2` [WX009] are 71000 nM, 2.3 nM and 30800.
For `O=S(=O)(NCC(F)(F)F)Nc1ncnc(OCCOc2ncc(Br)cn2)c1-c1ccc2c(c1)OCO2` [WX010], in that order: 61000 nM, 1.5 nM and 40600.
On to `O=S(=O)(Nc1ncnc(OCCOc2ncc(Br)cn2)c1-c1ccc2c(c1)OCO2)NC1CCC1` [WX011], for which the IC50 amounted to 22000 nM in test [1] and 1 nM in test [2]. The ETA/ETB selectivity in test [2] is recorded as 22000.
For `CCCCNS(=O)(=O)Nc1ncnc(OCCOc2ncc(Br)cn2)c1-c1ccc2c(c1)OCO2` [WX012], in that order: 16000 nM, 0.17 nM and 94100.
For `O=S(=O)(NCC1CC1)Nc1ncnc(OCCOc2ncc(Br)cn2)c1-c1ccc2c(c1)OCO2` [WX014], in that order: 35000 nM, 1.3 nM and 26900.
For `CCOCCNS(=O)(=O)Nc1ncnc(OCCOc2ncc(Br)cn2)c1-c1ccc2c(c1)OCO2` [WX015], in that order: above 300000 nM, 0.86 nM and above 348800.
Compound `CCCOCCNS(=O)(=O)Nc1ncnc(OCCOc2ncc(Br)cn2)c1-c1ccc2c(c1)OCO2` [WX016] had an IC50 in test [1] of 22000 nM. Also, in test [2], the IC50 amounted to 0.79 nM and the ETA/ETB selectivity is listed as 27800.
As for `COCCCNS(=O)(=O)Nc1ncnc(OCCOc2ncc(Br)cn2)c1-c1ccc2c(c1)OCO2` [WX017], the IC50 in test [1] was found to be 16000 nM; in test [2] it was 0.45 nM. Also, in test [2], the ETA/ETB selectivity is reported as 35500.
`CCOCCCNS(=O)(=O)Nc1ncnc(OCCOc2ncc(Br)cn2)c1-c1ccc2c(c1)OCO2` [WX018] had a concentration for half-maximal inhibition (IC50) in test [1] of 9600 nM. In test [2], the IC50 turned out to be 0.76 nM and the ETA/ETB selectivity amounted to 12600.
Consider `O=S(=O)(NCC1CCOCC1)Nc1ncnc(OCCOc2ncc(Br)cn2)c1-c1ccc2c(c1)OCO2` [WX019], for which the IC50 in test [1] is above 30000 nM. For the same compound, in test [2], the IC50 is 0.44 nM and the ETA/ETB selectivity was above 68100.
The corresponding values for `O=S(=O)(NCC1CCC1)Nc1ncnc(OCCOc2ncc(Br)cn2)c1-c1ccc2c(c1)OCO2` [WX020] are 17000 nM, 0.35 nM and 48500.
`O=S(=O)(NCC1CCCO1)Nc1ncnc(OCCOc2ncc(Br)cn2)c1-c1ccc2c(c1)OCO2` (stereo not drawn) [WX021] yielded an IC50 in test [1] of 46000 nM. In test [2], the 50% inhibitory concentration (IC50) stood at 0.34 nM and the ETA/ETB selectivity was 135200.
Take `CS(=O)(=O)CCNS(=O)(=O)Nc1ncnc(OCCOc2ncc(Br)cn2)c1-c1ccc2c(c1)OCO2` [WX022]: the midpoint of inhibition in test [1], the IC50, lay at 76000 nM. Besides, in test [2], the IC50 came out at 2.1 nM and the ETA/ETB selectivity came out at 36100.
The corresponding values for `CCCCNS(=O)(=O)Nc1ncnc(OCCOc2ncc(Br)cn2)c1-c1ccc2ccnn2c1` [WX026] are 73000 nM, 1.1 nM and 66300.
The corresponding values for `O=S(=O)(NCC1CC1)Nc1ncnc(OCCOc2ncc(Br)cn2)c1-c1ccc2ccnn2c1` [WX027] are 68000 nM, 2.8 nM and 24200.
For the compound `O=S(=O)(Nc1ncnc(OCCOc2ncc(Br)cn2)c1-c1ccc2c(c1)OCC2)N1CCC2(CC1)CC2` [WX028], the IC50 in test [1] was above 100000 nM; in test [2], 2 nM. Further, in test [2], the ETA/ETB selectivity is above 50000.
For `CCCNS(=O)(=O)Nc1ncnc(OCCOc2ncc(Br)cn2)c1-c1ccc2c(c1)OCC2` [WX029], in that order: 16000 nM, 0.65 nM and 24600.
The corresponding values for `COCCNS(=O)(=O)Nc1ncnc(OCCOc2ncc(Br)cn2)c1-c1ccc2c(c1)OCC2` [WX030] are 33000 nM, 1.3 nM and 25300.
For `O=S(=O)(Nc1ncnc(OCCOc2ncc(Br)cn2)c1-c1ccc2c(c1)OCC2)N1C[C@H]2C[C@H]2C1` [WX031], in that order: above 100000 nM, 1.1 nM and above 90900.
As to `O=S(=O)(Nc1ncnc(OCCOc2ncc(Br)cn2)c1-c1ccc2c(c1)OCC2)N1CC2(COC2)C1` [WX032], the IC50 in test [1] is above 30000 nM; in test [2], 3 nM. Moreover, the ETA/ETB selectivity in test [2] is reported as above 10000.
Regarding `CCCNS(=O)(=O)Nc1ncnc(OCCOc2ncc(Br)cn2)c1-c1ccc2c(c1)CCO2` [WX033], the IC50 in test [1] was above 30000 nM. In test [2], half-maximal inhibition (IC50) required 1.6 nM and the ETA/ETB selectivity is recorded as above 18700.

The values are drawn from patent US11319305B2, “Pyrimidine sulfamide derivative and preparation method and medical application thereof” (SHIJIAZHUANG SAGACITY NEW DRUG DEVELOPMENT CO., LTD., priority 2017, dated 2022).
